Measurements from US4742053A, “3-Isoquinoliniomethyl cephalosporin derivatives” (Banyu Pharmaceutical Co., Ltd., priority 1984, dated 1988).
Values after ≈ are worked out from the molar mass of the structure shown. Read-outs that look alike come from different tables or passages of the source.

Key:
[1] = test system: Gram-positive bacteria and Gram-negative bacteria; settings: background, Antimicrobial Agents and Chemotherapy; cited from earlier work
P. mirabilis JY10 = assay: MIC by agar plate dilution method; format: cell-based; settings: Proteus mirabilis
Experimental: (§1) The minimum inhibitory concentrations (MIC: μg/ml) of the compounds of the present invention against various microorganisms were measured by an agar plate dilution method (inoculum size: 10^6 CFU/ml) by using Sensitivity Disk Agar (Nissui) in comparison with Cefotaxime and Ceftazidime as comparative compounds.
(§2) Minimum Inhibitory Concentration (μg/ml; 10^6 CFU/ml)

P. vulgaris No. 33 = assay: MIC by agar plate dilution method; format: cell-based; settings: Proteus vulgaris
Experimental: as §1, §2

K. pneumoniae No. 42 = assay: MIC by agar plate dilution method; format: cell-based; settings: Klebsiella pneumoniae
Experimental: as §1, §2

C. freundii No. 7 = assay: MIC by agar plate dilution method; format: cell-based; settings: Citrobacter freundii
Experimental: as §1, §2

S. marcescens No. 16-2 = assay: MIC by agar plate dilution method; format: cell-based; settings: Serratia marcescens
Experimental: as §1, §2

E. coli NIHJJC-2 = assay: MIC by agar plate dilution method; format: cell-based; settings: Escherichia coli
Experimental: as §1, §2

E. cloaceae Nek 39 = assay: MIC by agar plate dilution method; format: cell-based; settings: read-out: Minimum Inhibitory Concentration
Experimental: as §1, §2

S. aureus JS-1 = assay: MIC by agar plate dilution method; format: cell-based; settings: Staphylococcus aureus
Experimental: as §1, §2

E. coli CSH = assay: MIC by agar plate dilution method; format: cell-based; settings: Escherichia coli, 10^6 CFU/ml, read-out: Minimum Inhibitory Concentration
Experimental: as §1, §2

P. aeruginosa AKR17 = assay: MIC by agar plate dilution method; format: cell-based; settings: Pseudomonas aeruginosa
Experimental: as §1, §2

P. aeruginosa AK109 = assay: MIC by agar plate dilution method; format: cell-based; settings: Pseudomonas aeruginosa
Experimental: as §1, §2

P. vulgaris OB1043 = assay: MIC by agar plate dilution method; format: cell-based; settings: Proteus vulgaris
Experimental: as §1, §2

P. cepacia 23 = assay: MIC by agar plate dilution method; format: cell-based
Experimental: as §1, §2

E. coli ML1410/Rte16 = assay: MIC by agar plate dilution method; format: cell-based; settings: Escherichia coli, ML1410/RTE16, read-out: Minimum Inhibitory Concentration, E. coli ML1410/Rte16; 10^6 CFU/ml
Experimental: as §1, §2

A. calcoaceticus No. 14 = assay: MIC by agar plate dilution method; format: cell-based; settings: Acinetobacter calcoaceticus
Experimental: as §1, §2

S. aureus NIHJJC-1 = assay: MIC by agar plate dilution method; format: cell-based; settings: Staphylococcus aureus
Experimental: as §1, §2

E. coli W3630/Rms213 = assay: MIC by agar plate dilution method; format: cell-based; settings: Escherichia coli, W3630/RMS213, read-out: Minimum Inhibitory Concentration, E. coli W3630/Rms213; 10^6 CFU/ml
Experimental: as §1, §2

E. coli CSH2 = assay: MIC by agar plate dilution method; format: cell-based; settings: Escherichia coli, 10^6 CFU/ml, read-out: Minimum Inhibitory Concentration
Experimental: as §1, §2

P. maltophilia IID 1275 = assay: MIC by agar plate dilution method; format: cell-based; settings: Stenotrophomonas maltophilia
Experimental: as §1, §2

E. coli W3630/Rms212 = assay: MIC by agar plate dilution method; format: cell-based; settings: Escherichia coli, W3630/RMS212, read-out: Minimum Inhibitory Concentration, E. coli W3630/Rms212; 10^6 CFU/ml
Experimental: as §1, §2

E. coli C/Rms149 = assay: MIC by agar plate dilution method; format: cell-based; settings: Escherichia coli, read-out: Minimum Inhibitory Concentration, E. coli C/Rms149; 10^6 CFU/ml
Experimental: as §1, §2

E. coli NIHJ = assay: bioautography (TLC); format: cell-based; settings: TLC Merck silica gel F254, E. coli NIHJ
Experimental: 2.5 mg of the compound obtained in Example 4 (C) was suspended in 0.5 ml of methanol, and 35 μl of concentrated aqueous ammonia was added thereto. The mixture was left to stand at room temperature for 1 hour. […] The fraction of this peak was separated and freeze-dried to obtain 1 mg of the above identified compound.

[2] = P. mirabilis JY10, 10^6 CFU/ml, read-out: Minimum Inhibitory Concentration
[3] = P. vulgaris No. 33, 10^6 CFU/ml, read-out: Minimum Inhibitory Concentration
[4] = K. pneumoniae No. 42, 10^6 CFU/ml, read-out: Minimum Inhibitory Concentration
[5] = C. freundii No. 7, 10^6 CFU/ml, read-out: Minimum Inhibitory Concentration
[6] = NO.162, S. marcescens No. 16-2, 10^6 CFU/ml, read-out: Minimum Inhibitory Concentration
[7] = NIHJJC2, E. coli NIHJJC-2, 10^6 CFU/ml, read-out: Minimum Inhibitory Concentration
[8] = E. cloaceae Nek 39, 10^6 CFU/ml
[9] = JS1, S. aureus JS-1, 10^6 CFU/ml, read-out: Minimum Inhibitory Concentration
[10] = AKR17, P. aeruginosa AKR17, 10^6 CFU/ml, read-out: Minimum Inhibitory Concentration
[11] = AK109, P. aeruginosa AK109, 10^6 CFU/ml, read-out: Minimum Inhibitory Concentration
[12] = OB1043, P. vulgaris OB1043, 10^6 CFU/ml, read-out: Minimum Inhibitory Concentration
[13] = Burkholderia cepacia, P. cepacia 23, 10^6 CFU/ml, read-out: Minimum Inhibitory Concentration
[14] = NO.14, A. calcoaceticus No. 14, 10^6 CFU/ml, read-out: Minimum Inhibitory Concentration
[15] = NIHJJC1, S. aureus NIHJJC-1, 10^6 CFU/ml, read-out: Minimum Inhibitory Concentration

Row | SMILES | antibacterial activities [1] | MIC (P. mirabilis JY10; [2]) | MIC (P. vulgaris No. 33; [3]) | MIC (K. pneumoniae No. 42; [4]) | MIC (C. freundii No. 7; [5]) | MIC (S. marcescens No. 16-2; [6]) | MIC (E. coli NIHJJC-2; [7]) | MIC (E. cloaceae Nek 39; [8]) | MIC (S. aureus JS-1; [9]) | MIC (E. coli CSH) | MIC (P. aeruginosa AKR17; [10]) | MIC (P. aeruginosa AK109; [11]) | MIC (P. vulgaris OB1043; [12]) | MIC (P. cepacia 23; [13]) | MIC (E. coli ML1410/Rte16) | MIC (A. calcoaceticus No. 14; [14]) | MIC (E. coli W3630/Rms213) | MIC (E. coli CSH2) | MIC (E. coli W3630/Rms212) | MIC (E. coli C/Rms149) | also measured
1 | CO/N=C(\C(=O)N[C@@H]1C(=O)N2C(C(=O)O)=C(COC(C)=O)CS[C@H]12)c1csc(N)n1 [Cefotaxime, reference compound] | relatively poor antibacterial activities against Gram-positive bacteria, and excellent activities against Gram-negative bacteria, particularly against Enterobacteriacae | ≤ 0.05 µg/mL | ≤ 0.05 µg/mL | 0.1 µg/mL (≈ 0.22 µM) | 0.39 µg/mL (≈ 0.856 µM) | 6.25 µg/mL (≈ 13.7 µM) | ≤ 0.05 µg/mL | 0.78 µg/mL (≈ 1.71 µM) | 6.25 µg/mL (≈ 13.7 µM) | 0.1 µg/mL (≈ 0.22 µM) | > 25 µg/mL | 6.25 µg/mL (≈ 13.7 µM) | 0.39 µg/mL (≈ 0.856 µM) | 6.25 µg/mL (≈ 13.7 µM) | ≤ 0.05 µg/mL | 25 µg/mL (≈ 54.9 µM) | 0.2 µg/mL (≈ 0.439 µM) | ≤ 0.05 µg/mL | ≤ 0.05 µg/mL | ≤ 0.05 µg/mL | MIC (S. aureus NIHJJC-1; [15]): 0.78 µg/mL (≈ 1.71 µM); MIC (P. maltophilia IID 1275; IID1275, P. maltophilia IID 1275, 10^6 CFU/ml, read-out: Minimum Inhibitory Concentration): > 25 µg/mL
2 | CC(C)(O/N=C(\C(=O)N[C@@H]1C(=O)N2C(C(=O)[O-])=C(C[n+]3ccccc3)CS[C@H]12)c1csc(N)n1)C(=O)O [Ceftazidime, reference compound] | the most excellent cephalosporin derivative against Gram-positive bacteria including Pseudomonas aeruginosa and Acinetobacter | – | – | – | – | – | – | – | – | ≤ 0.1 µg/mL | – | – | – | – | 0.2 µg/mL (≈ 0.366 µM) | – | 0.2 µg/mL (≈ 0.366 µM) | ≤ 0.1 µg/mL | 0.2 µg/mL (≈ 0.366 µM) | 0.2 µg/mL (≈ 0.366 µM) | MIC (P. mirabilis JY10; JY10, read-out: Minimum Inhibitory Concentration): ≤ 0.1 µg/mL; MIC (P. vulgaris No. 33; NO.33, read-out: Minimum Inhibitory Concentration): ≤ 0.1 µg/mL; MIC (K. pneumoniae No. 42; NO.42, read-out: Minimum Inhibitory Concentration): 0.39 µg/mL (≈ 0.714 µM); MIC (C. freundii No. 7; NO.7, read-out: Minimum Inhibitory Concentration): 1.56 µg/mL (≈ 2.85 µM); MIC (S. marcescens No. 16-2; NO.162, read-out: Minimum Inhibitory Concentration): 1.56 µg/mL (≈ 2.85 µM); MIC (E. coli NIHJJC-2; NIHJJC2, read-out: Minimum Inhibitory Concentration): ≤ 0.1 µg/mL; MIC (E. cloaceae Nek 39): 0.78 µg/mL (≈ 1.43 µM); MIC (S. aureus JS-1; JS1, read-out: Minimum Inhibitory Concentration): 50 µg/mL (≈ 91.5 µM); MIC (P. aeruginosa AKR17; AKR17, read-out: Minimum Inhibitory Concentration): > 100 µg/mL; MIC (P. aeruginosa AK109; AK109, read-out: Minimum Inhibitory Concentration): 1.56 µg/mL (≈ 2.85 µM); MIC (P. vulgaris OB1043; OB1043, read-out: Minimum Inhibitory Concentration): ≤ 0.1 µg/mL; MIC (P. cepacia 23; Burkholderia cepacia, 23, read-out: Minimum Inhibitory Concentration): 0.39 µg/mL (≈ 0.714 µM); MIC (A. calcoaceticus No. 14; NO.14, read-out: Minimum Inhibitory Concentration): 6.25 µg/mL (≈ 11.4 µM); MIC (S. aureus NIHJJC-1; NIHJJC1, read-out: Minimum Inhibitory Concentration): 3.12 µg/mL (≈ 5.71 µM); MIC (P. maltophilia IID 1275; IID1275, read-out: Minimum Inhibitory Concentration): > 25 µg/mL
3 | CO/N=C(\C(=O)NC1C(=O)N2C(C(=O)[O-])=C(C[N+]3(C)CCc4cc(OC(C)=O)c(OC(C)=O)cc4C3)CSC12)c1csc(N)n1 (centres unmarked) [Ex. 4-C, 7-[(Z)-2-(2-aminothiazol-4-yl)-2-methoxyiminoacetamido]-3-(6,7-diacetoxy-2-methyl-1,2,3,4-tetrahydro-2-isoquinolinium)methyl-3-cephem-4-carboxylate] | – | 0.78 µg/mL (≈ 1.18 µM) | 0.2 µg/mL (≈ 0.304 µM) | 0.2 µg/mL (≈ 0.304 µM) | 6.25 µg/mL (≈ 9.49 µM) | 6.25 µg/mL (≈ 9.49 µM) | < 0.05 µg/mL | ≤ 0.05 µg/mL | 25 µg/mL (≈ 38 µM) | 1.56 µg/mL (≈ 2.37 µM) | 1.56 µg/mL (≈ 2.37 µM) | 0.1 µg/mL (≈ 0.152 µM) | 1.56 µg/mL (≈ 2.37 µM) | 0.78 µg/mL (≈ 1.18 µM) | 0.1 µg/mL (≈ 0.152 µM) | 0.39 µg/mL (≈ 0.592 µM) | 1.56 µg/mL (≈ 2.37 µM) | 0.1 µg/mL (≈ 0.152 µM) | ≤ 0.05 µg/mL | ≤ 0.1 µg/mL | antibacterial spot in bioautography (E. coli NIHJ): the antibacterial spot of the starting material was at Rf=0.4; MIC (S. aureus NIHJJC-1; [15]): 3.12 µg/mL (≈ 4.74 µM)
